Patent US5120322A, “Method and apparatus for treatment of fibrotic lesions” (Lathrotec, Inc., priority 1990, dated 1992)
Structures can show the parent of a compound that is named as a salt. Where two headings read alike, the source gives them in different places.

Legend:
[1] = tested on: full thickness dermal scar around the elbow; experiment: Example 1: burn scar-elbow; format: in vivo, human; conditions: 5.0 mM BAPN-F and/or 20-25 mM D-penicillamine jelly or BAPN-F gauze (40 mg/100 cm^2); four to six weeks
Description: This restricts use. The hard scar is surgically "released" under general anesthesia by cutting in several places with or without a skin graft. The patient then has a lathyrogen applied and is placed in an elbow dynamic splint. This allows the elbow to be protected and at the same time to fully exercise the joint on a daily basis with or without the supervision of a physical therapist.
A lathyrogen jelly with 5.0 mM of BAPN-F and/or 20-25 mM D-penicillamine or a BAPN-F ]impregnated gauze (40 mg/100 cm^2 of gauze) is continuously applied to the wound during its healing phase beginning 4-8 days after surgical treatment and continued for four to six weeks in combination with physical therapy.

tracheal injury = experiment: Example 10: trachea; format: in vivo, human; conditions: silastic stint coated with 5.0 mM BAPN-F or D-Penicillamine; five or six weeks
Description: The patient suffering tracheal injury either due to a tracheostomy on an emergency basis or secondary to an automobile accident has primary anastomosis of the trachea resulting in a severe scar and impairment of the airway. The scar is excised and an endotracheal silastic stint coated with 5.0 mM BAPN-F or D-Penicillamine is put in place after one week and continuously maintained and changed on a weekly basis for five or six weeks during the healing phase. The lathyrogen is incorporated in the newly formed and healing wound where it allows the newly formed scar to be soft, plastic-like and conform to the diameter of the endotracheal stint.

collagen crosslinking = conditions: cited from earlier work
[2] = tested on: transection of the membranous urethra; experiment: Example 8: urethra-trauma; format: in vivo, human males; conditions: coated silicone catheter; about six weeks
Source text: Following fractured hips, 5-10% of human males suffer transection of the membranous urethra as it leaves the bladder. This transection requires primary anastamosis with catheter stinting, often resulting in severe scar formation and secondary bladder outlet obstruction. Balloon dilation (pressure balloon) to create new wound tissue may be performed or direct surgical resection removes the narrowed scar tissue. After one week, the original bladder catheter is exchanged for a silicone catheter coated with either BAPN-F or another lathyrogenic agent such as D-Penicillamine, which inhibits cross-linking (strong bonding) between scar collagen fibers. The coated catheter is continuously maintained in place and changed once a week for about six weeks during the healing phase.

[3] = systemic administration, humans; cited from earlier work
[4] = tested on: scarred and blocked fallopian tubes; experiment: Example 2: fallopian tube stenosis-infertility; format: in vivo, human; conditions: BAPN-coated silastic tube stint; four to six week healing phase
Source text: A patient having scarred and blocked fallopian tubes as a result of infection has incisions made in the scar tissue and a BAPN- coated silastic tube stint placed in the fallopian tube after one week and left in place during the healing phase. The stint is continuously maintained in contact with the fresh wound and is changed two or three times during the four to six week healing phase as the lathyrogenic agent leaches off the surface of the silastic stint and is incorporated into the newly healing scar. The newly formed scar takes the shape of the stint.

[5] = tested on: skin and other surrounding tissues; conditions: cited from earlier work
[6] = Decomposition of BAPN in ointment, gels or solutions; format: physicochemical; conditions: decomposition into ammonia, aminonitrile and CO2
urethral stenosis = experiment: Example 7: urethra-infection; format: in vivo, human; conditions: BAPN-F bonded silicone catheter; about six weeks
Source text: The old scar in the urethra is opened under direct surgical resection. Immediately afterward a silicone urethral bladder catheter is inserted. After one week, this catheter is exchanged for one with the lathyrogenic agent BAPN-F bonded onto its surface. The coated catheter is continuously maintained in place and changed ever week for about six weeks during the healing phase. During the healing phase new scar tissue is laid down. However, its strength is beneficially altered by the lathyrogen BAPN-F which inhibits the bonding of one protein scar fiber to the next protein scar fiber allowing the wound to be molded in the shape of the intraluminal stint (urinary bladder catheter).

[7] = tested on: common bile duct stenosis; experiment: Example 11: common bile duct stenosis; format: in vivo, human; conditions: BAPN-F coated silastic tube; six weeks
Source text: The scar is partially resected and after one week an original silastic stint is exchanged for an intraluminal silastic tube coated with BAPN-F with one arm of the tube protruding into the duodenum. The BAPN-F leaches off the silastic tube and is incorporated into the newly formed scar, which is soft because BAPN-F blocks cross-linking. The tube is continuously maintained in place and on a weekly basis the patient returns to the gastroenterology lab where, under direct manipulation, the tube is exchanged every week for six weeks. Once healing is complete the tube is removed and the new lumen of the common bile duct is preserved. The patient is no longer jaundiced and fluids from the liver can pass into the duodenum uninhibited.

[8] = tested on: peritendinous, perineural adhesions; experiment: Clinical effect of topically applied BAPN-F gauze; format: in vivo; conditions: 20-40 mg BAPN-F per 100 cm^2 of gauze, placed wet over the lesions
Source text: In order to obtain long shelf life of BAPN medications the drug should be kept dry and out of contact with water. For this reason administration of BAPN as an ointment, in gels or solutions is rather impractical, as the medication has to be freshly prepared every 6-8 weeks. 6-8 weeks is the time of detection of the first decomposition product of BAPN into ammonia, aminonitrile and CO2. This invention can overcome the above problem by incorporating a solution with the known concentration of BAPN into the dressing material (gauze, collagen sponge) with a known surface area. The dressing material may be soaked with a known volume of BAPN solution, frozen and freeze dried to complete dryness.

burns in the esophagus = conditions: dogs, cited from earlier work
[9] = tested on: circumferential suture line scar of bladder and urethra; experiment: Example 4: urethra-prostatic cancer; format: in vivo, human; conditions: silicone catheter coated with 5.0 mM BAPN-F; three weeks
Description: A patient with prostatic cancer detected with sonography and a candidate for total prostatectomy has the prostate removed and the cuff of the bladder sewn to the most proximal remaining portion of the urethra. This circumferential suture line often progresses to heavy scarring preventing complete emptying of the bladder. The scar is cut away under anesthesia and direct resectoscope vision and immediately stinted with a silicone catheter coated with 5.0 mM BAPN-F. The catheter remains in continuous direct contact with the new wound tissue during healing. The BAPN-F leaches from the surface of the catheter, thereby inhibiting hardening of the healing scar during the next three weeks. The catheter is changed on a weekly basis to renew the BAPN-F supply.

[10] = tested on: full thickness burn of the hand; experiment: Example 5: burn scar-hand; format: in vivo, human; conditions: jelly containing 5 mM/L BAPN-F; four to six weeks
Description: A patient with a well healed full thickness burn of the hand has severe scarring of the fingers and hand in a claw-like form. The old scars are surgically released to create full mobility of the joints. The hand is placed in a "dynamic splint." The splint contains rubber band fixation to a rigid frame allowing the patient to exercise their fingers through a full range of motion. During the healing phase and on a daily basis, a jelly containing 5 mM/L of the lathyrogenic agent BAPN-F is continuously applied to the surgically "released" areas. The patient continues to exercise and use the dynamic splint during the healing phase over the next four to six weeks. […] The dynamic splint is removed. Healing is complete and range of motion restored.

[11] = rabbit, in vivo
Description: This example illustrates the efficacy of collagen- resorcinol-glutaraldehyde polymer as a BAPN-F delivery system. One hundred parts of medical grade purity collagen, prepared by a known procedure, is mixed with three hundred parts of water and heated until collagen dissolves to form a viscous solution. […] One milliliter of this mixture per kilogram of rabbit body weight was injected under the skin, after quick mixing of the appropriate volume of the mixture with 1/10 of its volume of 3 percent glutaraldehyde in a 5 ml plastic syringe. […] The rate of the release of the BAPN-F from the polymer was studied by direct measuring of the amount of BAPN-F in the blood, collected from the ear vein of the rabbit at time intervals shown in Table 1.
For comparison, the same amount of BAPN-F was injected under the skin of control rabbits as water solution.

CC(C)(S)[C@@H](N)C(=O)O [D-Penicillamine]
range of motion at the elbow [1]: the patient resumes full range of motion at the elbow | scarring and airway dynamics (tracheal injury): no further scarring takes place, the medication and stint is discontinued and the patient returns to normal airway dynamics | inhibition of crosslinking (collagen crosslinking): crosslinking can be inhibited | opening after catheter removal [2]: a normal sized opening is present | systemic tolerance (therapeutic vs. toxic concentrations) [3]: therapeutic and toxic concentrations are so close that they cannot be systemically tolerated by humans

N#CCCN [BAPN, Beta-aminopropionitrile]
opening of the fallopian tube [4]: the opening of the fallopian tube is preserved and egg and sperm transport can now cross the previously blocked fallopian tube | inhibition of crosslinking (collagen crosslinking): crosslinking can be inhibited | penetration of skin and other surrounding tissues (thickness) [5]: a few millimeters in thickness | time of detection of the first decomposition product [6]: 6-8 weeks | systemic tolerance (therapeutic vs. toxic concentrations) [3]: therapeutic and toxic concentrations are so close that they cannot be systemically tolerated by humans

N#CCCN [BAPN-F, Beta-aminopropionitrile fumarate]
urination after stint removal (urethral stenosis): normal unobstructed urination can proceed | range of motion at the elbow [1]: the patient resumes full range of motion at the elbow | scarring and airway dynamics (tracheal injury): no further scarring takes place, the medication and stint is discontinued and the patient returns to normal airway dynamics | lumen of the common bile duct, jaundice [7]: the new lumen of the common bile duct is preserved. The patient is no longer jaundiced | clinical effect on fibrotic adhesions [8]: evident clinical effect of a topically applied gauze-placed wet over the lesions, such as peritendinous, perineural adhesions with prevention or reduction of the incidence of fibrotic adhesions | ingestion of food during treatment (burns in the esophagus; esophageal burns): severe problems in the ingestion of food | toxicity (burns in the esophagus; systemically introduced): serious toxicity problems | opening after catheter removal [2]: a normal sized opening is present | scarring of bladder-urethra suture line [9]: no new scarring takes place | range of hand motion [10]: full range of motion without further restriction of hand motion

Water
time to maximum in serum [11]: reaches a maximum in serum within two hours after injection | Plasma Level (BAPN-F) ([11]; 120 min): 3.2 | Plasma Level (BAPN-F) ([11]; 240 min): 2.9 | Plasma Level (BAPN-F) ([11]; 360 min): 2.1 | Plasma Level (BAPN-F) ([11]; 600 min): 1.0 | Plasma Level (BAPN-F) ([11]; 960 min): 0.1 | Plasma Level (BAPN-F) ([11]; 2880 min): 0 | Plasma Level (BAPN-F) ([11]; 4320 min): 0 | Plasma Level (BAPN-F) ([11]; 5760 min): 0 | Plasma Level (BAPN-F) ([11]; 10080 min): 0
